From PubChem BioAssay (NCI)
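Tested at 5 concentrations; 48 h exposure; 96-well plates; endpoints linearly interpolated, else capped at highest concentration. Definition used: TGI = concentration required for complete inhibition of growth.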

Assays:
Test in all cases: growth of human tumour cells (NCI), 48 h
[1] = system: HCC-2998 colon
[2] = system: SW-620 colon
[3] = system: HOP-92 NSCLC
[4] = system: MALME-3M melanoma
[5] = system: SNB-75 CNS
[6] = system: EKVX NSCLC
[7] = system: SF-295 CNS
[8] = system: SR leukemia
[9] = system: DU-145 prostate
[10] = system: HOP-62 NSCLC
[11] = system: SK-MEL-28 melanoma
[12] = system: MDA-MB-231 breast
[13] = system: OVCAR-5 ovarian
[14] = system: OVCAR-3 ovarian
[15] = system: A549 NSCLC
[16] = system: MDA-MB-435
[17] = system: SK-MEL-5 melanoma
[18] = system: PC-3 prostate
[19] = system: SK-OV-3 ovarian
[20] = system: 786-0 renal
[21] = system: NCI/ADR-RES ovarian
[22] = system: IGROV1 ovarian
[23] = system: SNB-19 CNS
[24] = system: SF-268 CNS
[25] = system: RPMI-8226 leukemia
[26] = system: OVCAR-4 ovarian
[27] = system: MDA-N
[28] = system: TK-10 renal
[29] = system: UO-31 renal
[30] = system: UACC-62 melanoma
[31] = system: MOLT-4 leukemia
[32] = system: CCRF-CEM leukemia
[33] = system: RXF 393 renal
[34] = system: HL-60(TB) leukemia
[35] = system: HS 578T breast
[36] = system: LOX IMVI melanoma
[37] = system: COLO 205 colon
[38] = system: T-47D breast
[39] = system: NCI-H522 lung
[40] = system: NCI-H226 lung
[41] = system: NCI-H460 lung
[42] = system: M14 melanoma
[43] = system: MCF7 breast
[44] = system: HT29 colon
[45] = system: SK-MEL-2 melanoma
[46] = system: K-562 leukemia
[47] = system: SN12C renal
[48] = system: ACHN renal
[49] = system: UACC-257 melanoma
[50] = system: SF-539 CNS
[51] = system: U251 CNS
[52] = system: KM12 colon
[53] = system: CAKI-1 renal
[54] = system: HCT-15 colon
[55] = system: BT-549 breast
[56] = system: NCI-H23 lung
[57] = system: HCT-116 colon
[58] = system: OVCAR-8 ovarian
[59] = system: A498 renal

Measured: TGI

CS(C)(=O)=N/C=C\C(=O)C(Cl)(Cl)Cl
> 100 µM: [1] | [2] | [3] | [4] | [5] | [6] | [7] | [8] | [9] | [10] | [11] | [12] | [13] | [14] | [15] | [16] | [17] | [18] | [19] | [20] | [21] | [22] | [23] | [24] | [25] | [26] | [27] | [28] | [29] | [30] | [31] | [32] | [33] | [34] | [35] | [36] | [37] | [38] | [39] | [40] | [41] | [42] | [43] | [44] | [45] | [46] | [47] | [48] | [49] | [50] | [51] | [52] | [53] | [54] | [55] | [56] | [57] | [58]

Nc1nc(-c2ccccc2)c(-c2ccccc2)c(-c2nc(N)nc(-c3ccccc3)c2-c2ccccc2)n1
> 100 µM: [1] | [2] | [3] | [4] | [5] | [6] | [7] | [8] | [9] | [10] | [11] | [12] | [13] | [14] | [15] | [16] | [17] | [18] | [19] | [20] | [59] | [21] | [22] | [23] | [24] | [26] | [27] | [28] | [29] | [30] | [31] | [33] | [34] | [35] | [36] | [37] | [38] | [39] | [40] | [41] | [42] | [43] | [44] | [45] | [46] | [47] | [48] | [49] | [50] | [51] | [52] | [53] | [54] | [55] | [56] | [57] | [58]

CC(=O)Nc1ccc2nncnc2c1
> 100 µM: [2] | [5] | [6] | [7] | [8] | [9] | [10] | [11] | [12] | [13] | [14] | [15] | [16] | [17] | [18] | [19] | [20] | [59] | [21] | [22] | [23] | [24] | [25] | [26] | [27] | [28] | [29] | [30] | [31] | [32] | [34] | [35] | [36] | [37] | [38] | [39] | [40] | [41] | [42] | [43] | [44] | [45] | [46] | [47] | [48] | [49] | [50] | [51] | [52] | [53] | [54] | [55] | [56] | [57]
